From ChEMBL document CHEMBL1128811, “Isolation and structure of the exceptional Pterobranchia human cancer inhibitors cephalostatins 16 and 171” (1995) come the findings set out here.

What is called GI50 is the concentration giving 50% growth inhibition. Read a high GI50 as less potent growth inhibition.

Holding throughout (format): functional
In experiment [1] the test system is Tumor Cell line. The experiment is described as follows: In vitro cytotoxic potency against 60 human tumor cell lines at 10e-7 M concentration.
For experiment [2], the system named is Tumor Cell line. In words: In vitro cytotoxic potency against 60 human tumor cell lines at 10e-8 M concentration.
The test system of a further experiment is P388. The experiment is described as follows: Effective dose against P388 cell line […]. The settings on record: Mus musculus, read-out: ED50 (the source's name).

Turning to `C[C@@H]1[C@]2(O[C@H]3C=C4[C@@H]5CC[C@H]6Cc7nc8c(nc7C[C@]6(C)[C@H]5C[C@@H](O)[C@]4(C)[C@]31O)C[C@@H]1CC[C@H]3C4=CC[C@@H]5[C@H](C)[C@@]6(OC[C@]45C(=O)C[C@@H]3[C@@]1(C)C8)OC(C)(C)C[C@H]6O)O[C@](C)(CO)C[C@H]2O` [CEPHALOSTATIN 1], the 50% growth inhibitory concentration (GI50) in the experiment on Tumor Cell line [1] is roughly 1 nM.

`C[C@@H]1[C@H]2CC=C3[C@@H]4CC[C@H]5Cc6nc7c(nc6C[C@]5(C)[C@@]4(O)CC(=O)[C@@]32CO[C@]12OC(C)(C)C[C@H]2O)C[C@@H]1CC[C@H]2C3=C[C@@H]4O[C@@]5(CC[C@](C)(O)CO5)[C@@H](C)[C@]4(O)[C@@]3(C)[C@H](O)C[C@@H]2[C@@]1(C)C7` [CEPHALOSTATIN 16] had a concentration for 50% growth inhibition (GI50) in the experiment with Tumor Cell line [2] of roughly 1 nM. The EC50 with P388 is less than 1 ng/mL.
